Source: ChEMBL document CHEMBL1146463, “A pair of new C-21 steroidal glycoside epimers from the roots of Cynanchum paniculatum” (2004)
Converted amounts (≈) assume the structure as drawn.

Test system: Staphylococcus aureus
Assay: Antibacterial activity against methicillin-resistant Staphylococcus aureus after 20 hrs
Format: functional

Row | Compound | MIC
1 | CO[C@@H]1C[C@H](O[C@H]2CC[C@@]3(C)C(=CC[C@H]4C(=O)O[C@@H]5CO[C@]6(C)O[C@H](O)/C(=C/C[C@@H]43)[C@H]56)C2)O[C@H](C)[C@H]1O [PANICULATUMOSIDE A] | 180 µg/mL (≈ 345 µM)
2 | CC(=O)OCC1=C(C(=O)O)N2C(=O)[C@@H](NC(=O)CSc3ccncc3)[C@H]2SC1 [CEPHAPIRIN] | 10.5 µg/mL (≈ 24.8 µM)
3 | CO[C@@H]1C[C@H](O[C@H]2CC[C@@]3(C)C(=CC[C@H]4C(=O)O[C@H]5CO[C@]6(C)O[C@@H](O)/C(=C/C[C@@H]43)[C@H]56)C2)O[C@H](C)[C@H]1O [PANICULATUMOSIDE B] | 149 µg/mL (≈ 285 µM)
